Source: patent US11912688B2, “1, 3-dioxolane derivative” (TOHOKU UNIVERSITY, priority 2019, dated 2024)

Legend:
iNOS transgenic mice [1] = assay: Test using mice developing diabetic nephropathy (iNOS transgenic mice); format: in vivo, mouse; conditions: 6 mg/kg/day oral
Excerpt: iNOS transgenic mice (Takamura T. et al., J Biol Chem. 1998; 273: 2493-2496; received from Emeritus Professor Hiroshi Okamoto, Tohoku University) were used as model mice. According to the literature of Takamura et al., breeding in which 4-week-old model mice (experimental group: n=8, control group: n=6) and a wild type group (n=8), which is non-transgenic mice born simultaneously with the model mice by mating iNOS transgenic mice and wild type (CD1 (ICR)) mice, were fed with high protein and high calorie diets was performed for 13 weeks. Compound 12 (D-532) was further orally administered to the experimental group in 6 mg/kg/day. As to the groups, the body weights were measured every day, and the blood sugar levels, the albumin in urine, and the creatinine in urine were measured in accordance with the usual method every 3 weeks. The groups were sacrificed after the breeding, the serum creatinine in the blood collected from the abdominal vena cava at the time of dissection was measured, and the gene expression in the kidneys collected at the time of dissection was analyzed. The kidney tissues were stained with HE and PAS and observed.
Further, the […] tissue section images were subjected to ImageJ (http://imagej.nih.gov/ij/) and measured according to the operation manual attached to ImageJ. When each glomerulus area (each group, n=100) and an area obtained by excluding regions of no interest such as vascular lumens and nuclei from the each glomerulus area were found, and the ratio therebetween, namely the PAS-positive area ratio in glomeruli, was found, the ratio increased in the model mice, and the improvement was meanwhile confirmed in the administered group.

ChREBP [2] = assay: ChREBP target gene expression analysis in the kidney by quantitative PCR (iNOS mice); format: in vivo, mouse; conditions: iNOS mice of Test Example 3, quantitative PCR
Experimental: (§1) In the mice used in Test Example 3, the expression variations of ChREBPβ and the TXNIP genes, which are target genes of ChREBP in the kidney, were analyzed by quantitative PCR in the method of the previous report (Genes to Cells 19 (2013) 52-65). The following primer set was used for the amplification of ChREBPβ.
A primer set used for the amplification of the TXNIP gene is as mentioned above.

iNOS transgenic mice [3] = assay: Observation of mouse kidney tissues by transmission electron microscope (iNOS mice); format: in vivo; conditions: iNOS mice of Test Example 3, transmission electron microscope; FIG. 16C
Experimental: The kidneys of model mice in the administered group and the non-administered group, and a mouse in the wild type group in Test Example 3 were placed in a prefixing solution containing 2% PFA (FUJIFILM Wako Pure Chemical Corporation; 163-20145)/2.5% glutaraldehyde (TAAB Laboratories Equipment Ltd.; G017/1)/0.1 M cacodylate buffer solution (FUJIFILM Wako Pure Chemical Corporation; 036-18175) and treated at room temperature for 2 hours. The prefixed kidneys were washed with 0.1 M cacodylate buffer solution (containing 8% sucrose (FUJIFILM Wako Pure Chemical Corporation: 196-00015)) on ice for 15 minutes×4 times and treated with postfixing solution containing 1% osmium tetroxide (FUJIFILM Wako Pure Chemical Corporation; 154-01014) on ice for 90 minutes. The postfixed kidneys were washed with ultrapure water for 15 minutes×3 times, placed in aqueous 50, 60, 70, 80, 90, and 95% ethanol solutions each for 10 minutes×1 time, further in 100% ethanol for 20 minutes×3 times, and subjected to ethanol dehydration. […]

ChREBP [4] = assay: ChREBP target gene expression analysis in the kidney by quantitative PCR (db/db mice); format: in vivo, mouse; conditions: db/db mice of Test Example 7, quantitative PCR
Experimental: as §1
In the mice used in Test Example 7, ChREBP target gene expression analysis was performed by the same method as in Test Example 4. FIG. 22 and FIG. 23 show the results.

db/db mice = assay: Relationship between blood sugar level and amount of albumin excreted in urine (ACR), regression lines, db/db mice; format: in vivo, mouse; conditions: experimental vs control group, least squares regression, FIG. 25
Excerpt: As to the blood sugar levels and the amounts of albumin excreted in urine (ACR) of the experimental group and the control group (non-administered group of db/db mice) in Test Example 7, a scatter diagram was created using SPSS, which is statistical analysis software, so that the abscissa axis is the blood sugar level, and the ordinate axis is the ACR, and regression lines (linear approximation by the least squares method) were found.

With `c1ccc(COC[C@H]2CO[C@@](Cn3nnc4ccccc43)(c3ccccc3)O2)cc1` [Example D-532, 1-(((2S,4S)-4-((benzyloxy)methyl)-2-phenyl-1,3-dioxolan-2-yl)methyl)-1H-benzo[d][1,2,3]triazole] the blood sugar level (iNOS transgenic mice [1]; 13 weeks, vs control group, FIG. 4) was “significantly low value as compared with the control group”, the “amount of albumin excreted in urine” value (iNOS transgenic mice [1]; 13 weeks, vs control group, FIG. 5) was “significant low value” and the “increase in blood creatinine” value (iNOS transgenic mice [1]; at dissection, FIG. 6) was “significantly improved”. For the same molecule, the “expression of ChREBPβ gene in the kidney” value (ChREBP [2]; FIG. 10) was “decrease in expression”, the “expression of TXNIP gene in the kidney” value (ChREBP [2]; FIG. 11) was “decrease in expression” and the “structure of foot processes in kidney tissue” value (iNOS transgenic mice [3]) was “suppressed the structural change of the foot processes”. For the same molecule, the “expression of ChREBPβ gene in the kidney” value (ChREBP [4]; FIG. 22) was “Decrease in the expression”, the “expression of TXNIP gene in the kidney” value (ChREBP [4]; FIG. 23) was “Decrease in the expression” and the “effect on ACR relative to blood sugar level (gradient of the regression line)” value (db/db mice) was “direct effect on the kidney”.
